The values that follow come from ChEMBL document CHEMBL1201862, “PubChem BioAssay data set” (2004).

By GI50 is commonly meant the concentration giving 50% growth inhibition.

Assay in all cases: DTP human tumour cell line panel, 48 h
The test system of test [1] is ACHN.
In test [2] the test system is CCRF-CEM.
For test [3], the system named is EKVX.
In test [4] the test system is HCC 2998.
In test [5] the test system is HCT-116.
The subject of test [6] is IGROV-1.
Test [7] deals with LOX IMVI.
Test [8] relates to M14.
Test [9] concerns MDA-MB-231.
Test [10] concerns MDA-MB-435.
Test [11] relates to MOLT-4.
Test [12] relates to NCI-H23.
Test [13] relates to NCI/ADR-RES.
In test [14] the test system is OVCAR-5.
Test [15] relates to PC-3.
Test [16] deals with SF-295.
The test system of test [17] is SK-MEL-28.
The subject of test [18] is TK-10.
The subject of test [19] is U-251.
Test [20] concerns SK-MEL-5.

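Protocol summary: plate cells (96-well), add compound at 5 concentrations, incubate 48 h, interpolate endpoints linearly. Abbreviation: GI50, concentration required for 50% inhibition of growth.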 Calls of active or inactive are those of the source. Cut-off read from the data, not from the text of the source: active = GI50 up to about 1.1 µM and inactive = higher.

With `COC(=O)CNC(=O)CCSc1nnc(COc2ccc(Cl)cc2)n1-c1ccccc1`, the GI50 in test [1] is 34.4 µM (inactive); in test [2] it was 55.5 µM (inactive); in [3], 59.6 µM (inactive); in test [4], 42.9 µM (inactive); in test [5], 37.5 µM (inactive); in test [6], 26.2 µM (inactive). Besides, the GI50 is 29.1 µM (inactive) in test [7]; 23.4 µM (inactive) in [8]; 21 µM (inactive) in test [9]; 24.1 µM (inactive) in test [10]; 24.7 µM (inactive) in test [11]; 45.6 µM (inactive) in test [12]. Also, the GI50 in test [13] was 42.6 µM (inactive); in test [14], 47.8 µM (inactive); in test [15] it was 52 µM (inactive); in [16], 58.5 µM (inactive); in test [17] it was 23.7 µM (inactive); in [18], 17.5 µM (inactive). Also, the GI50 in test [19] was 64.3 µM (inactive).

Regarding `CC(C)C(N)(C(=O)O)c1ccccc1` (stereo unspecified), the GI50 in [1], in [2], in [3], in test [4], in [5] and in [6] was > 100 µM (inactive) in each case. In addition, the GI50 in [7], in test [8], in [9], in test [10], in [12] and in test [13] was > 100 µM (inactive) in each case. For the same molecule, the GI50 in test [14], in test [15], in [16], in test [17], in [20] and in [18] was > 100 µM (inactive) each time. Besides, in [19], the GI50 is > 100 µM (inactive).

For `COc1ccc2nc3ccc(OC)cc3c(SCC3CO3)c2c1` (stereo unspecified), the GI50 in test [1] was 8.71 µM (inactive); in test [2] it was 6.85 µM (inactive); in [3], 13.3 µM (inactive); in test [4] it was 15.6 µM (inactive); in [5], 10.5 µM (inactive); in test [7], 15.4 µM (inactive). Besides, the GI50 was 14.4 µM (inactive) in test [8]; 15 µM (inactive) in test [9]; 18.2 µM (inactive) in [10]; 17.2 µM (inactive) in test [12]; 17.1 µM (inactive) in test [13]; 24.9 µM (inactive) in test [14]. In addition, the GI50 in [15] was 14.9 µM (inactive); in test [16] it was 60.7 µM (inactive); in test [17], 17.7 µM (inactive); in test [20] it was 15.8 µM (inactive); in [18], 12.8 µM (inactive); in test [19], 12.7 µM (inactive).

As to `O=CN(CCN1CCCC1)C1CCc2cc(Cl)c(Cl)cc2C1` (stereo unspecified), the GI50 in test [2] is 22.5 µM (inactive); in test [3], 27.2 µM (inactive); in test [4], 17.5 µM (inactive); in test [5], 10.6 µM (inactive); in [6] it was 22.1 µM (inactive); in test [7] it was 14 µM (inactive). For the same molecule, the GI50 in test [8] was 15.9 µM (inactive); in [9], 11 µM (inactive); in test [10] it was 15 µM (inactive); in test [11], 24.4 µM (inactive); in [12], 17.4 µM (inactive); in test [13], 19.5 µM (inactive). Further, the GI50 in test [14] was 17.4 µM (inactive); in [15] it was 11.4 µM (inactive); in test [16], 0.166 µM (active); in test [20] it was 27.2 µM (inactive); in test [18], 16.3 µM (inactive); in [19], 0.513 µM (active).

Consider `C/C(=N\N=C(\N)SB(F)F)c1ccc2ccccc2c1`, for which the GI50 is > 100 µM (inactive) in test [1]; 4.37 µM (inactive) in test [2]; > 100 µM (inactive) in test [3]; > 100 µM (inactive) in test [4]; > 100 µM (inactive) in [5]; > 100 µM (inactive) in test [6]. In addition, the GI50 in test [7] was 56.4 µM (inactive); in test [8], > 100 µM (inactive); in [9] it was > 100 µM (inactive); in test [10] it was > 100 µM (inactive); in test [12] it was > 100 µM (inactive); in test [13], > 100 µM (inactive). Also, the GI50 in test [14], in test [15], in test [16], in test [17], in test [20] and in test [18] was > 100 µM (inactive) in each case. The GI50 in test [19] was > 100 µM (inactive).

As for `CCOC(=O)c1c(N2CCOCC2)[nH]c(=O)c(C(c2ccc(OC)cc2)c2c(O)c(C(=O)OCC)c(N3CCOCC3)[nH]c2=O)c1O`, the GI50 in test [1], in test [2], in [3], in [4], in [5] and in test [7] was > 100 µM (inactive) each time. Besides, the GI50 in test [8], in test [9], in [10], in test [11], in test [12] and in test [13] was > 100 µM (inactive) in each case. Also, the GI50 in test [14], in [15], in test [16], in test [17], in [20] and in test [18] was > 100 µM (inactive) throughout. For the same molecule, the GI50 in [19] was > 100 µM (inactive).

For the molecule `SCCCSCCSCCCSCCS`, the GI50 in [2] was 31.7 µM (inactive); in test [3] it was > 100 µM (inactive); in test [4] it was > 100 µM (inactive); in test [5], > 100 µM (inactive); in test [6] it was > 100 µM (inactive); in test [7] it was > 100 µM (inactive). The GI50 in [8] is 87.9 µM (inactive); in [9], 70.6 µM (inactive); in test [10] it was > 100 µM (inactive); in test [11] it was 33.2 µM (inactive); in test [12], 85.9 µM (inactive); in test [13], > 100 µM (inactive). In addition, the GI50 in test [14] is > 100 µM (inactive); in [15], 65.8 µM (inactive); in [16], > 100 µM (inactive); in [17], > 100 µM (inactive); in test [20] it was 91.6 µM (inactive); in test [19], > 100 µM (inactive).

In the case of `O=S(=O)(O)c1ccc(/N=N/c2ccc(/N=N/c3c(O)ccc4ccccc34)c(S(=O)(=O)O)c2)cc1`, the GI50 in test [1], in test [2], in test [3], in test [4], in test [5] and in [6] was > 100 µM (inactive) throughout. The GI50 in [8], in test [9], in test [10], in [11], in test [12] and in [13] was > 100 µM (inactive) each time. In addition, the GI50 in test [14], in [15], in test [16], in test [17], in [20] and in test [18] was > 100 µM (inactive) each time. Moreover, in test [19], the GI50 is > 100 µM (inactive).

`Nc1nccc(NCC2(CO)CCC2)n1`: the GI50 in [1], in test [2], in [3], in test [4], in [5] and in test [6] was > 100 µM (inactive) in each case. In addition, the GI50 in [7], in test [9], in test [10], in [11], in [12] and in test [13] was > 100 µM (inactive) in each case. In addition, the GI50 is > 100 µM (inactive) in test [14]; > 100 µM (inactive) in test [15]; > 100 µM (inactive) in [16]; > 100 µM (inactive) in test [17]; > 100 µM (inactive) in test [20]; 36.7 µM (inactive) in test [18]. Also, in test [19], the GI50 is > 100 µM (inactive).

In the case of `Oc1[nH]c(Nc2ccc(Cl)c(C(F)(F)F)c2)nc2ncnc1-2`, the GI50 in test [1] is 44.5 µM (inactive); in test [2] it was 21 µM (inactive); in [3], 53.1 µM (inactive); in test [4] it was 24.7 µM (inactive); in test [5], 34.7 µM (inactive); in test [6], 35.7 µM (inactive). The GI50 in test [7] is 25.5 µM (inactive); in test [8], 57.4 µM (inactive); in test [9], 42.2 µM (inactive); in test [10], 50.2 µM (inactive); in test [11], 23.2 µM (inactive); in test [12] it was 73.8 µM (inactive). The GI50 in test [13] is > 100 µM (inactive); in test [14], 65.9 µM (inactive); in test [15] it was 33 µM (inactive); in test [16], > 100 µM (inactive); in [20], 40.4 µM (inactive); in [18], 52.6 µM (inactive). In test [19], the GI50 is 50.5 µM (inactive).

In the case of `CNc1c2c(c3nc4ccccc4c4c3c1N=C4)NCCC2=O` [PLAKINIDINE A], the GI50 in test [1] was 2.07 µM (inactive); in test [2] it was 1.9 µM (inactive); in test [3], > 10 µM (inactive); in [4], 5.08 µM (inactive); in test [5], 1.77 µM (inactive); in test [6], 4.42 µM (inactive). In addition, the GI50 in test [8] is > 10 µM (inactive); in test [9] it was 3.86 µM (inactive); in test [10], 5.79 µM (inactive); in test [11], 1.32 µM (inactive); in test [12], 7.13 µM (inactive); in test [13], 2.83 µM (inactive). Besides, the GI50 in test [14] was 5.83 µM (inactive); in test [15], 3.46 µM (inactive); in [16], 4.5 µM (inactive); in [17], > 10 µM (inactive); in test [20], 6.55 µM (inactive); in test [18], 8.51 µM (inactive). Moreover, in test [19], the GI50 is 5.87 µM (inactive).
